Calls of active or inactive are those of the source. How the calls were made is not given here.
Test system: CCRIS mutagenicity, Ames/micronucleus/aberration tests
Assay: CCRIS mutagenicity studies
[1] = Test System: AMES SALMONELLA TYPHIMURIUM, Strain/Indicator: TA98, Metabolic Activation: NONE, Method: PREINCUBATION
[2] = Test System: AMES SALMONELLA TYPHIMURIUM, Strain/Indicator: TA98, Metabolic Activation: NONE, Method: STANDARD PLATE
[3] = Test System: AMES SALMONELLA TYPHIMURIUM, Strain/Indicator: TA100, Metabolic Activation: NONE, Method: PREINCUBATION
[4] = Test System: AMES SALMONELLA TYPHIMURIUM, Strain/Indicator: TA100, Metabolic Activation: NONE, Method: STANDARD PLATE
[5] = Test System: AMES SALMONELLA TYPHIMURIUM, Strain/Indicator: TA1538, Metabolic Activation: NONE, Method: STANDARD PLATE
[6] = Test System: AMES SALMONELLA TYPHIMURIUM, Strain/Indicator: TA1538, Metabolic Activation: RAT, LIVER, S-9, AROCLOR 1254, Method: STANDARD PLATE

O=C(CCCN1CCC(O)(c2ccc(Cl)cc2)CC1)c1ccc(F)cc1
mutagenic call (End Point: IN VITRO CHROMOSOMAL ABERRATIONS, Test System: HUMAN LYMPHOCYTES, Metabolic Activation: NONE): inactive; negative
mutagenic call (End Point: IN VIVO CHROMOSOMAL ABERRATIONS, Test System: LYMPHOCYTES, Species: HUMAN, Strain/Sex: MALE, Route: ORAL): inactive; negative
mutagenic call (Test System: AMES SALMONELLA TYPHIMURIUM, Strain/Indicator: TA98, Metabolic Activation: MOUSE, LIVER, S-9, AROCLOR 1254, Method: STANDARD PLATE): inactive; negative
mutagenic call (Test System: AMES SALMONELLA TYPHIMURIUM, Strain/Indicator: TA98, Metabolic Activation: MOUSE, LIVER, S-9, Method: STANDARD PLATE): inactive; negative
mutagenic call [1]: inactive; negative
mutagenic call [2]: inactive; negative
mutagenic call (Test System: AMES SALMONELLA TYPHIMURIUM, Strain/Indicator: TA98, Metabolic Activation: RAT, LIVER, S-9, AROCLOR 1254, Method: PREINCUBATION): inactive; negative
mutagenic call (Test System: AMES SALMONELLA TYPHIMURIUM, Strain/Indicator: TA98, Metabolic Activation: RAT, LIVER, S-9, AROCLOR 1254, Method: STANDARD PLATE): inactive; negative
mutagenic call (Test System: AMES SALMONELLA TYPHIMURIUM, Strain/Indicator: TA100, Metabolic Activation: MOUSE, LIVER, S-9, AROCLOR 1254, Method: STANDARD PLATE): inactive; negative
mutagenic call (Test System: AMES SALMONELLA TYPHIMURIUM, Strain/Indicator: TA100, Metabolic Activation: MOUSE, LIVER, S-9, Method: STANDARD PLATE): inactive; negative
mutagenic call [3]: inactive; negative
mutagenic call [4]: inactive; negative
mutagenic call (Test System: AMES SALMONELLA TYPHIMURIUM, Strain/Indicator: TA100, Metabolic Activation: RAT, LIVER, S-9, AROCLOR 1254, Method: PREINCUBATION): inactive; negative
mutagenic call (Test System: AMES SALMONELLA TYPHIMURIUM, Strain/Indicator: TA100, Metabolic Activation: RAT, LIVER, S-9, AROCLOR 1254, Method: STANDARD PLATE): inactive; negative
mutagenic call (Test System: AMES SALMONELLA TYPHIMURIUM, Strain/Indicator: TA1530, Metabolic Activation: MOUSE, LIVER, S-9, AROCLOR 1254, Method: STANDARD PLATE): inactive; negative
mutagenic call (Test System: AMES SALMONELLA TYPHIMURIUM, Strain/Indicator: TA1530, Metabolic Activation: MOUSE, LIVER, S-9, Method: STANDARD PLATE): inactive; negative
mutagenic call (Test System: AMES SALMONELLA TYPHIMURIUM, Strain/Indicator: TA1530, Metabolic Activation: NONE, Method: STANDARD PLATE): inactive; negative
mutagenic call (Test System: AMES SALMONELLA TYPHIMURIUM, Strain/Indicator: TA1530, Metabolic Activation: RAT, LIVER, S-9, AROCLOR 1254, Method: STANDARD PLATE): inactive; negative
mutagenic call (Test System: AMES SALMONELLA TYPHIMURIUM, Strain/Indicator: TA1535, Metabolic Activation: MOUSE, LIVER, S-9, AROCLOR 1254, Method: STANDARD PLATE): inactive; negative
mutagenic call (Test System: AMES SALMONELLA TYPHIMURIUM, Strain/Indicator: TA1535, Metabolic Activation: MOUSE, LIVER, S-9, Method: STANDARD PLATE): inactive; negative
mutagenic call (Test System: AMES SALMONELLA TYPHIMURIUM, Strain/Indicator: TA1535, Metabolic Activation: NONE, Method: STANDARD PLATE): inactive; negative
mutagenic call (Test System: AMES SALMONELLA TYPHIMURIUM, Strain/Indicator: TA1535, Metabolic Activation: RAT, LIVER, S-9, AROCLOR 1254, Method: STANDARD PLATE): inactive; negative
mutagenic call (Test System: AMES SALMONELLA TYPHIMURIUM, Strain/Indicator: TA1537, Metabolic Activation: NONE, Method: STANDARD PLATE): inactive; negative
mutagenic call (Test System: AMES SALMONELLA TYPHIMURIUM, Strain/Indicator: TA1537, Metabolic Activation: RAT, LIVER, S-9, AROCLOR 1254, Method: STANDARD PLATE): inactive; negative
mutagenic call (Test System: AMES SALMONELLA TYPHIMURIUM, Strain/Indicator: TA1538, Metabolic Activation: MOUSE, LIVER, S-9, AROCLOR 1254, Method: STANDARD PLATE): inactive; negative
mutagenic call (Test System: AMES SALMONELLA TYPHIMURIUM, Strain/Indicator: TA1538, Metabolic Activation: MOUSE, LIVER, S-9, Method: STANDARD PLATE): inactive; negative
mutagenic call [5]: inactive; negative
mutagenic call [6]: inactive; negative

ONc1ccccc1-c1ccccc1
mutagenic call [2]: inactive; negative
mutagenic call [4]: active; positive

CCOC(/C=C(\C)CCC=C(C)C)OCC
mutagenic call (Test System: AMES SALMONELLA TYPHIMURIUM, Strain/Indicator: TA97, Metabolic Activation: HAMSTER, LIVER, S-9, AROCLOR 1254 (10%), Method: PREINCUBATION): inactive; negative
mutagenic call (Test System: AMES SALMONELLA TYPHIMURIUM, Strain/Indicator: TA97, Metabolic Activation: NONE, Method: PREINCUBATION): inactive; negative
mutagenic call (Test System: AMES SALMONELLA TYPHIMURIUM, Strain/Indicator: TA97, Metabolic Activation: RAT, LIVER, S-9, AROCLOR 1254 (10%), Method: PREINCUBATION): inactive; negative
mutagenic call (Test System: AMES SALMONELLA TYPHIMURIUM, Strain/Indicator: TA98, Metabolic Activation: HAMSTER, LIVER, S-9, AROCLOR 1254 (10%), Method: PREINCUBATION): inactive; negative
mutagenic call [1]: inactive; negative
mutagenic call (Test System: AMES SALMONELLA TYPHIMURIUM, Strain/Indicator: TA98, Metabolic Activation: RAT, LIVER, S-9, AROCLOR 1254 (10%), Method: PREINCUBATION): inactive; negative
mutagenic call (Test System: AMES SALMONELLA TYPHIMURIUM, Strain/Indicator: TA100, Metabolic Activation: HAMSTER, LIVER, S-9, AROCLOR 1254 (10%), Method: PREINCUBATION): inactive; negative
mutagenic call [3]: inactive; negative
mutagenic call (Test System: AMES SALMONELLA TYPHIMURIUM, Strain/Indicator: TA100, Metabolic Activation: RAT, LIVER, S-9, AROCLOR 1254 (10%), Method: PREINCUBATION): inactive; negative
mutagenic call (Test System: AMES SALMONELLA TYPHIMURIUM, Strain/Indicator: TA1535, Metabolic Activation: HAMSTER, LIVER, S-9, AROCLOR 1254 (10%), Method: PREINCUBATION): active; positive
mutagenic call (Test System: AMES SALMONELLA TYPHIMURIUM, Strain/Indicator: TA1535, Metabolic Activation: NONE, Method: PREINCUBATION): inactive; negative
mutagenic call (Test System: AMES SALMONELLA TYPHIMURIUM, Strain/Indicator: TA1535, Metabolic Activation: RAT, LIVER, S-9, AROCLOR 1254 (10%), Method: PREINCUBATION): active; positive

CC(C)CCCC(C)C1CCC2C3CC=C4CC(OCCO)CCC4(C)C3CCC12C (stereo unspecified)
mutagenic call [2]: inactive; negative
mutagenic call (Test System: AMES SALMONELLA TYPHIMURIUM, Strain/Indicator: TA98, Metabolic Activation: RAT, LIVER, MICROSOMES, Method: STANDARD PLATE): inactive; negative
mutagenic call [4]: inactive; negative
mutagenic call (Test System: AMES SALMONELLA TYPHIMURIUM, Strain/Indicator: TA100, Metabolic Activation: RAT, LIVER, MICROSOMES, Method: STANDARD PLATE): inactive; negative

OC1c2cccc3c2[C@]2(O[C@H]2C1O)c1ccccc1-3 (stereo partly specified)
mutagenic call (Test System: AMES SALMONELLA TYPHIMURIUM, Strain/Indicator: TM677, Metabolic Activation: NONE, Method: PREINCUBATION): active; positive
mutagenic call (Test System: AMES SALMONELLA TYPHIMURIUM, Strain/Indicator: TM677, Metabolic Activation: RAT, LIVER, POSTMITOCHONDRIAL SUPERNATANT, AROCLOR 1254, Method: PREINCUBATION): active; positive

O=C(O)c1ccccc1C1=c2cc3c4c(c2Oc2c1cc1c5c2CCCN5CCC1)CCC[N+]=4CCC3
mutagenic call [5]: inactive; negative
mutagenic call [6]: inactive; negative

O=NSCCO
mutagenic call [3]: active; positive

Reference: PubChem BioAssay AID1259407 (Chemical Carcinogenesis Research Information System (CCRIS), 2018)
